Source: ChEMBL document CHEMBL4402560, “Sarco/Endoplasmic Reticulum Calcium ATPase Inhibitors: Beyond Anticancer Perspective” (J Med Chem, 2020)
Values belong to the compound of their own block, whether it stands above or below them.

Legend:
[1] = Inhibition of SERCA (unknown origin); parameters: species or system Homo sapiens
[2] = Inhibition of fish liver microsomes SERCA by enzyme-coupled method; parameters: species or system Squalius cephalus
[3] = target: T1, Sarcoplasmic/endoplasmic reticulum calcium ATPase 1 (Oryctolagus cuniculus, UniProt P04191); experiment: Inhibition of rabbit microsomes SERCA1a by enzyme-coupled method
T1 sequence (P04191 whole entry): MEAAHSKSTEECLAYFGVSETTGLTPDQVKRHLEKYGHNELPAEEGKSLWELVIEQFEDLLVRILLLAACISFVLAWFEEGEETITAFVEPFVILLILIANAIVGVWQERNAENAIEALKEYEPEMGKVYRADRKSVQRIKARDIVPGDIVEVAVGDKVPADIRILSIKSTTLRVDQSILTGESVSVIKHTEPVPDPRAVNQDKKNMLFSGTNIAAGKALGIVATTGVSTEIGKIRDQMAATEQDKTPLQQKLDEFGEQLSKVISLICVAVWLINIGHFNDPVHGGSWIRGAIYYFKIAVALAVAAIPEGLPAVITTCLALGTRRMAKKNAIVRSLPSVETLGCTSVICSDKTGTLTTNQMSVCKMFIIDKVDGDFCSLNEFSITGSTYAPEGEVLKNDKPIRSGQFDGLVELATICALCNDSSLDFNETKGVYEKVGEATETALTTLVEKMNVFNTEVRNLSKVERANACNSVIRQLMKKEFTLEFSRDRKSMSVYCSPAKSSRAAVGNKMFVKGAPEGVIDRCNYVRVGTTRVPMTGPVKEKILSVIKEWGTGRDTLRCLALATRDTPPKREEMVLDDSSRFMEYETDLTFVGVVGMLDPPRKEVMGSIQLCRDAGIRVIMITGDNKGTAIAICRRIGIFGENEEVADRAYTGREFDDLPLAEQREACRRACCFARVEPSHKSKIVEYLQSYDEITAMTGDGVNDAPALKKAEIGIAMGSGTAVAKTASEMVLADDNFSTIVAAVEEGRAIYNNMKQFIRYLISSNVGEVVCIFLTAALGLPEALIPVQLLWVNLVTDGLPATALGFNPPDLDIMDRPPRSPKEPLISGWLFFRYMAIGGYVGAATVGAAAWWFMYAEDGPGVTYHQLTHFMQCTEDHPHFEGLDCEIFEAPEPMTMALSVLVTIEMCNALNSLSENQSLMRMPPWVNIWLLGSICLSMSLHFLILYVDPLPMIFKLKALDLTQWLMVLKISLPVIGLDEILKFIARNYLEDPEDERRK

[4] = target: T1, Sarcoplasmic/endoplasmic reticulum calcium ATPase 1; experiment: Inhibition of rabbit skeletal muscle microsomes SERCA1a by malachite green based colorimetric method
[5] = target: T1, Sarcoplasmic/endoplasmic reticulum calcium ATPase 1; experiment: Inhibition of rabbit skeletal muscle microsomes SERCA1a
[6] = target: T1, Sarcoplasmic/endoplasmic reticulum calcium ATPase 1; experiment: Inhibition of rabbit skeletal muscle microsomes SERCA1a preincubated for 10 mins followed by addition of ATP and measured after 40 mins
[7] = target: Sarcoplasmic/endoplasmic reticulum calcium ATPase 3 (Homo sapiens, UniProt Q93084); experiment: Inhibition of human SERCA3a expressed in COS7 cells microsomal membranes preincubated for 10 mins followed by addition of ATP and measured after 40 mins by ELISA method; format: cell-based
Chain of Sarcoplasmic/endoplasmic reticulum calcium ATPase 3 (Q93084 whole entry): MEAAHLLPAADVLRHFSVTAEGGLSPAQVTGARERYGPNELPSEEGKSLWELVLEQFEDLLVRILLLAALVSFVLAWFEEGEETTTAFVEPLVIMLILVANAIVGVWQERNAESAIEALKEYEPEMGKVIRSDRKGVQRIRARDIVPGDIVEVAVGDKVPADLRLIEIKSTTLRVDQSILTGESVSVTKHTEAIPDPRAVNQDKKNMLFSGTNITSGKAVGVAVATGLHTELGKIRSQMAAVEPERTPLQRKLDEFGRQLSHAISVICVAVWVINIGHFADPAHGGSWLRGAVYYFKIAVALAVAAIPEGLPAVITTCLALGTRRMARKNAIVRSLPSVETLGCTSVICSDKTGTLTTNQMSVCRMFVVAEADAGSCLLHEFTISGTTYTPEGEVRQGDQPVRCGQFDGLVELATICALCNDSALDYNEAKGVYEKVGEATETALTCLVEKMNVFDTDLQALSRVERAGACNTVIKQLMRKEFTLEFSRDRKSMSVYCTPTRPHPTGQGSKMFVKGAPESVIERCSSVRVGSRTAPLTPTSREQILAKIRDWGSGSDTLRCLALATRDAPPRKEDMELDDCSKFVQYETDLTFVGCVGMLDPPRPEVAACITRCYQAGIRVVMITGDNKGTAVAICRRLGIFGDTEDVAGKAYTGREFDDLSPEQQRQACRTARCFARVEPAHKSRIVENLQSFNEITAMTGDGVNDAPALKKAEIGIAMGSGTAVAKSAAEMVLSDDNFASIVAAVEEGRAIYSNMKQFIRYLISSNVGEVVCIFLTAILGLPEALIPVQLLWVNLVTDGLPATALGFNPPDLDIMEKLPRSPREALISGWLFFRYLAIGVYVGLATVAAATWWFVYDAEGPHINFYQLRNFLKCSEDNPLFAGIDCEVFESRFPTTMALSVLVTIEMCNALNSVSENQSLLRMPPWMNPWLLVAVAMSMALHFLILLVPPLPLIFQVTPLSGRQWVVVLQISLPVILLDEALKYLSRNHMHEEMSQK

[8] = target: T2, Sarcoplasmic/endoplasmic reticulum calcium ATPase 2 (Homo sapiens, UniProt P16615); experiment: Inhibition of human SERCA2b expressed in COS7 cells microsomal membranes preincubated for 10 mins followed by addition of ATP and measured after 40 mins by ELISA method; format: cell-based
T2 sequence (P16615 whole entry): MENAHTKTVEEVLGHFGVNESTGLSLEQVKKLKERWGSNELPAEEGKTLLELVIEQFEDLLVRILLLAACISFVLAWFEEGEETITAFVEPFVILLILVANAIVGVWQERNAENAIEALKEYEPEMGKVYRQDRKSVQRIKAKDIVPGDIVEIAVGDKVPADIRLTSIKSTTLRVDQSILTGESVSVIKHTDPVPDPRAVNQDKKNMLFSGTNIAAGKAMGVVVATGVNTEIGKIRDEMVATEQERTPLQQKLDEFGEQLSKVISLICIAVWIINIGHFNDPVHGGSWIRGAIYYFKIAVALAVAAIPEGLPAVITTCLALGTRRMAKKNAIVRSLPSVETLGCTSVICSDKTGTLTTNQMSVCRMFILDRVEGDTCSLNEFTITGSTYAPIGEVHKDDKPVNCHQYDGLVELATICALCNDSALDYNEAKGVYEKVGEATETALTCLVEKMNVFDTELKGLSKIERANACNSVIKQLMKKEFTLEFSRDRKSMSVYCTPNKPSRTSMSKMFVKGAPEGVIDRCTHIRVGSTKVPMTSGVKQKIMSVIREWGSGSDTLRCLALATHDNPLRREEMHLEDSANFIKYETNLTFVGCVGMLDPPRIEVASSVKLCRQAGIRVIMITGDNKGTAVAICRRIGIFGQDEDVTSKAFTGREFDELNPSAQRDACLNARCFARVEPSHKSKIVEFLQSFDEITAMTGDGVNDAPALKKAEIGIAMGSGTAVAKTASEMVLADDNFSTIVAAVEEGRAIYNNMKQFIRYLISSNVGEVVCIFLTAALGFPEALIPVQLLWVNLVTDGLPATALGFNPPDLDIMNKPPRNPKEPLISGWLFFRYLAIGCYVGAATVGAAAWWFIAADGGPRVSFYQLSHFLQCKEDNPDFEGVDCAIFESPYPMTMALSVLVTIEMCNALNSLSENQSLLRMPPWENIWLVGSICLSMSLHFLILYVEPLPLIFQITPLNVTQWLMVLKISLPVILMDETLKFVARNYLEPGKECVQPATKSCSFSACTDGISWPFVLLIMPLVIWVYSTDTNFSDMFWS

[9] = target: T1, Sarcoplasmic/endoplasmic reticulum calcium ATPase 1; experiment: Inhibition of rabbit SERCA1b expressed in COS7 cells microsomal membranes preincubated for 10 mins followed by addition of ATP and measured after 40 mins by ELISA method; format: cell-based
[10] = target: T1, Sarcoplasmic/endoplasmic reticulum calcium ATPase 1; experiment: Inhibition of rabbit skeletal muscle microsomes SERCA1a preincubated for 10 mins followed by addition of ATP and measured after 30 mins
[11] = target: T1, Sarcoplasmic/endoplasmic reticulum calcium ATPase 1; experiment: Inhibition of rabbit skeletal muscle microsomes SERCA1a incubated for 10 mins by enzyme-coupled method
[12] = Inhibition of porcine cerebellar microsomes SERCA2b by enzyme-coupled method; parameters: species or system Sus scrofa domesticus, Cerebellum
[13] = target: T1, Sarcoplasmic/endoplasmic reticulum calcium ATPase 1; experiment: Inhibition of rabbit skeletal muscle microsomes SERCA1a by enzyme-coupled method
[14] = Inhibition of porcine cerebellar microsomes FITC-labelled SERCA2b incubated for 1 hr by fluorescence spectrophotometric method
[15] = target: T1, Sarcoplasmic/endoplasmic reticulum calcium ATPase 1; experiment: Inhibition of rabbit skeletal muscle microsomes FITC-labelled SERCA1a incubated for 1 hr by fluorescence spectrophotometric method
[16] = target: T1, Sarcoplasmic/endoplasmic reticulum calcium ATPase 1; experiment: Inhibition of SERCA1 in rabbit skeletal muscle microsomes assessed as decrease in NADH absorbance by NADH-coupled enzyme assay; parameters: species or system Muscle tissue
[17] = Inhibition of Porcine cerebellar microsomes SERCA preincubated for 10 mins followed by addition of ATP and measured after 10 mins by colorimetric method; parameters: species or system Sus scrofa domesticus, Cerebellum
[18] = species: Sus scrofa domesticus; experiment: Inhibition of Porcine cerebellar microsomes SERCA at 200 uM preincubated for 10 mins followed by addition of ATP and measured after 10 mins by colorimetric method relative to control; conditions: Cerebellum
[19] = target: T1, Sarcoplasmic/endoplasmic reticulum calcium ATPase 1; experiment: Inhibition of rabbit SERCA1a preincubated for 10 mins followed by addition of ATP and measured after 10 mins by colorimetric method
[20] = Inhibition of Porcine cardiac microsomes SERCA preincubated for 10 mins followed by addition of ATP and measured after 10 mins by colorimetric method; parameters: species or system Sus scrofa domesticus, Heart
[21] = target: T2, Sarcoplasmic/endoplasmic reticulum calcium ATPase 2; experiment: Inhibition of SERCA2a (unknown origin)

SMILES: Clc1cccc(C(Nc2ccnc3cc(Cl)ccc23)c2ccc(CN3CCCC3)cc2)c1 (centres undefined)
- IC50 [4]: 8 µM

SMILES: CC[C@H](C)[C@H](NC(=O)[C@H](CCCCN)NC(=O)[C@H](CCCCN)NC(=O)[C@H](C)NC(=O)[C@H](CC(C)C)NC(=O)[C@H](C)NC(=O)[C@H](C)NC(=O)[C@H](CC(C)C)NC(=O)[C@H](C)NC(=O)[C@H](CCCCN)NC(=O)[C@H](CC(C)C)NC(=O)[C@H](CC(N)=O)NC(=O)[C@@H](NC(=O)[C@H](Cc1ccc(O)cc1)NC(=O)[C@H](CCCNC(=N)N)NC(=O)[C@@H]1CCCN1C(=O)[C@H](CCCNC(=N)N)NC(=O)[C@H](CC(N)=O)NC(=O)[C@H](CCC(N)=O)NC(=O)[C@H](Cc1ccccc1)NC(=O)[C@@H](Cc1ccc(O)cc1)N(C)C(=O)Cc1ccccc1)[C@@H](C)CC)C(=O)N[C@@H](CC(C)C)C(N)=O
- IC50 [5]: 0.61 µM

SMILES: O=c1c(O)c(-c2ccc(O)c(O)c2)oc2cc(O)cc(O)c12 [QUERCETIN]
- IC50 [6]: 9 µM

SMILES: C/C(O)=C1\C(=O)[C@@H]2[C@H]3c4c[nH]c5cccc(c45)C[C@H]3C(C)(C)N2C1=O
- IC50 [7]: 0.09 to 2.5 µM
- IC50 [8]: 0.09 to 2.5 µM
- IC50 [9]: 0.09 to 2.5 µM

SMILES: Cc1cc(O)ccc1Cl [CHLOROCRESOL]
- IC50 [10]: 2800 µM

SMILES: OCCN1CCN(CCCN2c3ccccc3Sc3ccc(C(F)(F)F)cc32)CC1 [FLUPHENAZINE]
- IC50 [11]: 15 µM

SMILES: NCCOB(c1ccccc1)c1ccccc1
- IC50 [14]: 70 to 700 µM
- IC50 [15]: 70 to 700 µM

SMILES: CCCCC/C=C\C/C=C\C/C=C\C/C=C\CCCC(=O)O[C@@H]1[C@@H](O)[C@@H](O)[C@H](OC[C@H]2O[C@@H](Oc3c(-c4ccc(O)c(O)c4)oc4cc(O)cc(O)c4c3=O)[C@H](O)[C@@H](O)[C@@H]2O)O[C@H]1C
- IC50 [16]: 23 µM

SMILES: CO[C@H]1C[C@@H]2CC[C@@H](C)[C@@](O)(O2)C(=O)C(=O)N2CCCC[C@H]2C(=O)O[C@H]([C@H](C)C[C@@H]2CC[C@@H](O)[C@H](OC)C2)CC(=O)[C@H](C)/C=C(\C)[C@@H](O)[C@@H](OC)C(=O)[C@H](C)C[C@H](C)/C=C/C=C/C=C/1C [SIROLIMUS]
- IC50 [17]: 77 µM
- inhibition [18]: 80%
- IC50 [19]: 77 µM
- IC50 [20]: 77 µM

SMILES: C/C=C/C/C(C)=C\[C@H]1C/C=C/C=C/C[C@H](C)/C=C(\C)[C@@H](OC)C/C=C/[C@@H](O)CC(=O)O1
- Ki [21]: 0.027 µM
- Ki [5]: 0.017 µM

SMILES: O=C(O[C@@H]1Cc2c(O)cc(O)cc2O[C@@H]1c1cc(O)c(O)c(O)c1)c1cc(O)c(O)c(O)c1 [EPIGALOCATECHIN GALLATE]
- IC50 [5]: 12 µM

Further lines, results first:

- IC50 [1]: 15 µM
- IC50 [2]: 7 to 20 µM
- IC50 [3]: 14 to 20 µM
SMILES: CC/C(=C(/CC)c1ccc(O)cc1)c1ccc(O)cc1 [DIETHYLSTILBESTROL]

- IC50 [5]: 30 µM
SMILES: Cc1ccc(-c2cc(C(F)(F)F)nn2-c2ccc(S(N)(=O)=O)cc2)c(C)c1

- IC50 [6]: 6 µM
SMILES: O=c1c(O)c(-c2ccccc2)oc2ccc(O)cc12

- IC50 [12]: 27 µM
- IC50 [13]: 27 to 53 µM
SMILES: C[C@H](C[C@H](O)[C@H]1OC1(C)C)C1=C2C[C@H](O)[C@H]3[C@@]4(C)CCC(=O)C(C)(C)[C@@H]4CC[C@]3(C)[C@@]2(C)CC1 [ALISOL B]

- IC50 [12]: 23 µM
- IC50 [13]: 23 µM
SMILES: CCOC(=O)CC1C(C(=O)OCC)=C(N)Oc2ccc(-c3ccccc3)cc21 (centres undefined)

- IC50 [7]: 2 to 7 µM
- IC50 [8]: 2 to 7 µM
- IC50 [1]: 0.4 µM
- IC50 [9]: 2 to 7 µM
SMILES: CC(C)(C)c1cc(O)c(C(C)(C)C)cc1O

- IC50 [12]: 0.5 to 2.3 µM
- IC50 [13]: 0.5 to 2.3 µM
SMILES: CC(C)(c1cc(Br)c(O)c(Br)c1)c1cc(Br)c(O)c(Br)c1

- IC50 [5]: 13.5 µM
SMILES: CCOC(=O)CC1C(C(=O)OCC)=C(N)Oc2ccc(-c3cc(OC)cc(OC)c3)cc21 (centres undefined)
